Assay results published in US6670400B1, “Phenoxyethylamine derivatives having high affinity for the 5-HT1A receptor, preparation thereof, use thereof as drugs, and pharmaceutical compositions containing said derivatives” (Societe de Conseils de Recherches et D'Applications …, priority 1995, dated 2003).
Counter-ions that a name gives are not always drawn.

Tests used:
5-HT1A receptor = biological target: T1, 5-HT1A receptor (Rattus norvegicus, UniProt P19327); assay: Affinity for the 5-HT1A receptor: inhibition of [3H]8-OH-DPAT binding to rat cerebral cortex membranes; conditions: [3H]8-OH-DPAT 1 nM, 30 min at 25 deg. C.
T1 construct: Rat cerebral cortex membranes (10 mg by weight, moistened, per ml) are incubated with [3H]8-OH-DPAT (1 nM); from tissue; host or cells: rat cerebral cortex membranes (male Sprague Dawley rats)
T1 sequence (P19327 1-422): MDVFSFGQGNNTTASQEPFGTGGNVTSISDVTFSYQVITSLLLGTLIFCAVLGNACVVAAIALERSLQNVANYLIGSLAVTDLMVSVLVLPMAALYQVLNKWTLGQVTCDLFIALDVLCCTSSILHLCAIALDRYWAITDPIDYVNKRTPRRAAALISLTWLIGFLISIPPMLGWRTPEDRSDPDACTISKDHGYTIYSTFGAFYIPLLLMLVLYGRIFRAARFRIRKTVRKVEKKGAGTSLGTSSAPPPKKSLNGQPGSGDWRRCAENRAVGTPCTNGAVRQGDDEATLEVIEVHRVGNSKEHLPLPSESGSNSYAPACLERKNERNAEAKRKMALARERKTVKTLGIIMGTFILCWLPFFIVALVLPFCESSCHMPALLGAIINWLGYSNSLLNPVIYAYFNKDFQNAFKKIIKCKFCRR
Experimental: The affinity of the compounds for the 5-HT1A serotonergic receptors is determined by measuring the inhibition of [3H]8-hydroxy-2 (di-n-propylamino) tetralin([3H]8-OH-DPAT) connected with the cerebral cortex of the rat according to the method of Perutka et al. (J. Neurochem., 47,529 [1986]).
Cerebral cortices of male Sprague Dawley rats are homogenized in 50 mM Tris-HCl, pH—7.4, and centrifuged at 40,000 g for 10 min. at 4 degrees C. Pellets are put into suspension in the same buffer and incubated for 10 min. at 37 degrees C. and the homogenates are again centrifuged at 40,000 g for 10 min. at 4 degrees C.
Competitive inhibition tests of the bond of [3H]8-OH-DAPT are performed three times with unmarked competitors with concentrations ranging between 100 pM and 100 μM. Rat cerebral cortex membranes (10 mg by weight, moistened, per ml) are incubated with [3H]8-OH-DPAT (1 nM) for 30 min. at 25 deg. C. in Tris-HCl 50 mM, pH 7.4 comprising 4 mM of CaCl2, 10 μM of pargylin and 0.1% ascorbic acid.
The bonded [3H]8-OH-DPAT is separated from the free [3H]8-OH-DPAT by immediate filtration by means of Whatman GF/B fiberglass filters using a Brandel cell recoverer. The filters [filtrates?] are washed three times with the same buffer at 0-4 deg. C. and their radioactivity is determined by means of a liquid scintillation spectrometer.
The specific bond is obtained by subtracting the given bond in the presence of 1 μM of 8-OH-DPAT from the total bond. The bond characteristics are analyzed by interactive analysis of the nonlinear regression by computer using the Ligand program (Munson and Rodbard, Anal. Biochem., 107, 220 [1980]).

gastric acid secretion = assay: Gastric anti-secretion activity, pylorus-ligated rat (Shay method); assay type: in vivo; conditions: intraduodenal, male Sprague Dawley rats, pylorus ligature, 4 hours
Experimental: The gastric anti-secretion activity of the compounds of the invention was tested according to the method described by Shay et al. (H. Shay, D. C. Sun, M. Gruenstein, Gastroenterology, 26, 906 [1954]). Thus, male Sprague Dawley rats weighing around 200 g with free access to water are made to fast 24 hours before the experiments. Ligatures are made on the pylora under ether anesthesia and the medications to be tested are simultaneously administered either by the intraperitoneal route (i.p.) or by intraduodenal route (i.d.). The abdomen is closed again and the animals are sacrificed after four hours. The gastric secretion is recovered and centrifuged at 1,500 g for 15 minutes; the volume of the supernatant is measured and the acidity is determined by automatic titration of 0.05 N sodium hydroxide. A control group is included for each experiment.
The dose necessery for 50% inhibition (ED50) of the acid secretion (X concentration of hydrochloric acid by volume) is calculated using the method described by Litchfield and Wilcoxon (J. T. Litchfield, F. A. Wilcoxon, J. Pharmacol., 96, 99 [1949]). The results obtained for compounds pounds representative of the invention are given in Table 3 and compared with the clinically used reference compounds: Pirenzepine (anti-cholinergic), Ranitidine (antagonist of histaminergic H2 receptors) and Omeprazole (proton pump inhibitor).

[1] = tested on: vomiting induced by cis-platinum; assay: Anti-emetic activity: inhibition of vomiting induced by cis-platinum in ferrets; assay type: in vivo, ferret; conditions: 30 minutes before cis-platinum 30 mg/kg i.v., ferrets observed six hours
Experimental: Inhibition induced by cis-platinum is evaluated in ferrets using a modification of the protocol described by Barnes et al. (J. M. Barnes, N. M. Barnes, B. Costall, R. J. Naylor, F. D. Tattersall, Neuropharmacology, 27[8], 783 [1988]). Thus, albino ferrets or European polecats of both sexes weighing between 0.5 kg and 1.5 kg are put under anesthesia with pentobarbitone (30-40 mg/kg i.p.) and a polyethylene injection tube is inserted into the left jugular vein. Two days later, the compounds being tested are administered i.v. 30 minutes before cis-platinum (30 mg/kg i.v.). The animals are observed for six hours and the number of vomitings is recorded. A control group is included for each experiment.

intestinal transit = assay: Effect on intestinal transit (charcoal meal) in rats; assay type: in vivo, rat; conditions: 30 minutes before charcoal, sacrificed after 15 minutes
Experimental: A compound of the invention was tested to determine its effect on the intestinal transit according to the method described by A. F. Green (Br. J. Pharmacol., 14, 26-34 [1959]). To male Sprague Dawley rats weighing approximately 200 g before being made to fast, there was administered (p.o.) a meal comprised of charcoal (10 g) and gum arabic (2.5 g) dissolved in 100 ml of distilled water. The animals were sacrificed after 15 minutes and the charcoal transit time was measured.
The product to be tested was administered (s.c.) 30 minutes before the administration of the charcoal.

gastric emptying = assay: Effect on gastric emptying (phenol red meal) in rats; assay type: in vivo, rat; conditions: sacrificed 15 minutes after phenol red meal
Experimental: A compound of the invention was tested for its effect on gastric emptying according to the method described by C. Scarpignato et al. (Arch. Int. Pharmacodyn., 246, 286-294 [1980]). Thus, 1.5 ml of a 1.5% methyl cellulose solution comprising phenol red (0.5 mg/ml) was administered orally to Sprague Dawley rats weighing approximately 200 g and previously subjected to fasting. The animals were sacrificed after 15 minutes and the pylora and the esophagi were tied off. The contents of the stomachs were collected in a teflon beaker containing a solution of soda (100 ml at 0.1 N) and the mixture was homogenized. The proteins were precipitated by addition of 0.5 ml of a 20% aqueous solution of trifluoroacetic acid to a 5 ml portion of homogenate. After centrifuging, the part of the solution rising to the top was separated and added to 4.5 ml of an aqueous solution of soda at 0.5 N and the phenol red content was determined by using a spectrophotometer at a wavelength of 560 nm.
The compound to be tested was administered (s.c.) 15 minutes […] the administration of phenol red.

SMILES	melting point	Ki (5-HT1A receptor)	further results
COc1cccc(C(=O)NCCCCNCCOc2ccccc2OC)c1 (as salt: fumarate) [compound 14]	68 to 70 °C		
CCOc1ccccc1OCCNCCCCNC(=O)C(C)(C)C (as salt: fumarate) [compound 64]	131.5 to 133 °C		
COc1ccccc1OCCNCCCCNC(=O)c1ccc(F)cc1 (as salt: salt) [compound 23]	119 to 120.5 °C		
COc1ccccc1OCCNCCCCNC(=O)c1cccc(I)c1 (as salt: salt) [compound 30]	121 to 121.5 °C		
CNC(=O)c1ccccc1OCCNCCCCNC(=O)c1ccccc1 [Compound No. 18]			ED50 (dose necessary for 50% inhibition of the acid secretion) (gastric acid secretion): 3.2 mg/kg i.d.; Percent Inhibition (vomiting) ([1]; 1.0 mg/kg iv): 62%; Charcoal Transit Time Compared to Control (intestinal transit; 0.3 mg/kg s.c.): +16%; Charcoal Transit Time Compared to Control (intestinal transit; 1.0 mg/kg s.c.): +20%; Effect on Gastric Emptying Time Compared to Control (gastric emptying; 0.3 mg/kg s.c.): +8%; Effect on Gastric Emptying Time Compared to Control (gastric emptying; 1.0 mg/kg s.c.): +18%; Effect on Gastric Emptying Time Compared to Control (gastric emptying; 3.0 mg/kg s.c.): +26%
CCN(CC)CCNC(=O)c1cc(Cl)c(N)cc1OC [Metoclopramide, reference compound]			Percent Inhibition (vomiting) ([1]; 1.0 mg/kg iv): 15%
COc1ccc2[nH]c([S+]([O-])Cc3ncc(C)c(OC)c3C)nc2c1 (stereo not drawn) [Omeprazole, reference compound]			ED50 (dose necessary for 50% inhibition of the acid secretion) (gastric acid secretion): 4.6 mg/kg i.d.
Cc1nccn1CC1CCc2c(c3ccccc3n2C)C1=O (stereo not drawn) [Ondansetron, reference compound]			Percent Inhibition (vomiting) ([1]; 0.5 mg/kg iv): 62%
CN1CCN(CC(=O)N2c3ccccc3C(=O)Nc3cccnc32)CC1 [Pirenzepine, reference compound]			ED50 (dose necessary for 50% inhibition of the acid secretion) (gastric acid secretion): 14 mg/kg i.d.
CNC(=C[N+](=O)[O-])NCCSCc1ccc(CN(C)C)o1 [Ranitidine, reference compound]			ED50 (dose necessary for 50% inhibition of the acid secretion) (gastric acid secretion): 22 mg/kg i.d.
CSc1ccccc1OCCNCCCCNC(=O)c1ccccc1 [compound 11]		0.71 nM	
COc1cccc(C(=O)NCCCCNCCOc2ccccc2OC)c1 [compound 14]		1.6 nM	
O=C(NCCCCNCCOc1ccccc1O)c1ccccc1 [compound 20, N[4-{2-(2-hydroxyphenoxy)ethyl}aminobutyl]benzamide]		0.23 nM	ED50 (dose necessary for 50% inhibition of the acid secretion) (gastric acid secretion): 3.1 mg/kg i.d.
CCOc1ccccc1OCCNCCCCNC(=O)C(C)(C)C [compound 64]		0.77 nM	

Further lines, with some results ahead:

melting point	Ki (5-HT1A receptor)	SMILES	further results
130 to 132 °C		COc1ccccc1OCCNCCCCNC(=O)CC(C)(C)C (as salt: fumarate) [compound 33]	
134 to 136 °C		COc1ccccc1OCCNCCCCNC(=O)C1CCCCC1 (as salt: fumarate) [compound 34, N[4-{2-(2-methoxyphenoxy)ethyl}aminobutyl]cyclohexylamide]	
120 to 122 °C		COc1ccccc1OCCNCCCCNC(=O)C1(C)CCCCC1 (as salt: fumarate) [compound 45]	
125 to 126 °C		COc1ccccc1OCCNCCCCNC(=O)C1CCCCCC1 (as salt: fumarate) [compound 46, N[4-{2-(2-methoxyphenoxy)ethyl}aminobutyl]cycloheptylamide]	
130 to 131 °C		COc1ccccc1OCCNCCCCNC(=O)C1CC2CCC1C2 (stereo not drawn) (as salt: fumarate) [compound 50, N[4-{2-(2-methoxyphenoxy)ethyl}aminobutyl]2-bicyclo[2,2,1]heptylamide]	
118 to 119 °C		COc1ccccc1OCCNCCCCNC(=O)CC1CCCC1 (as salt: fumarate) [compound 59]	
152 to 154 °C		COc1ccccc1OCCNCCCCNC(=O)c1ccccn1 (as salt: salt) [compound 3]	
	0.2 nM	COc1ccccc1OCCNCCCCNC(=O)c1ccccc1 [Compound No. 1, N-[4-{2-(2-Methoxyphenoxy)ethyl}aminobutyl]benzamide]	ED50 (dose necessary for 50% inhibition of the acid secretion) (gastric acid secretion): 3.7 mg/kg i.d.; Percent Inhibition (vomiting) ([1]; 1.0 mg/kg iv): 40%
	0.1 nM	COc1ccccc1OCCNCCCCNC(=O)C12CC3CC(CC(C3)C1)C2 [Compound No. 2, N-[4-{-2-(2-Methoxyphenoxy)ethyl}aminobutyl]-1-adamantamide]	ED50 (dose necessary for 50% inhibition of the acid secretion) (gastric acid secretion): 3.6 mg/kg i.d.
	1.4 nM	COc1ccccc1OCCNCCCCNC(=O)c1ccccn1 [compound 3]	
	0.33 nM	COc1ccccc1OCCNCCCCNC(=O)c1ccc(F)cc1 [compound 23]	
	0.44 nM	COc1ccccc1OCCNCCCCNC(=O)c1cccc(I)c1 [compound 30]	
	0.33 nM	COc1ccccc1OCCNCCCCNC(=O)CC(C)(C)C [compound 33]	
	0.087 nM	COc1ccccc1OCCNCCCCNC(=O)C1CCCCC1 [compound 34, N[4-{2-(2-methoxyphenoxy)ethyl}aminobutyl]cyclohexylamide]	
	0.14 nM	COc1ccccc1OCCNCCCCNC(=O)C1(C)CCCCC1 [compound 45]	
	0.094 nM	COc1ccccc1OCCNCCCCNC(=O)C1CCCCCC1 [compound 46, N[4-{2-(2-methoxyphenoxy)ethyl}aminobutyl]cycloheptylamide]	
	0.071 nM	COc1ccccc1OCCNCCCCNC(=O)C1CC2CCC1C2 (stereo not drawn) [compound 50, N[4-{2-(2-methoxyphenoxy)ethyl}aminobutyl]2-bicyclo[2,2,1]heptylamide]	
	0.65 nM	COc1ccccc1OCCNCCCCNC(=O)CC1CCCC1 [compound 59]	
